Literature values, collected in patent publication US20230338417A1, “Improved Pharmaceutical Preparation” (priority 2020, published 2023).

Molecule | Acid dissociation constant as pKa at 298K
peroxochloric acid | approx. 6.2
[O-][Cl+2]([O-])O [chloric acid] | 0
